Experimental data published in publication PMC11045757, “Group 3 medulloblastoma transcriptional networks collapse under domain specific EP300/CBP inhibition” (Nature Communications, 2024).
Where “and” joins values, the source holds several entries; their conditions need not be identical. Equal entries are not always repeated. Where two headings read alike, the source gives them in different places.

Tests used:
[1] = system: HDMB03 (HDMBO3) group 3 medulloblastoma cells; assay: CellTiter-Glo dose-response growth assay; format: cell-based; conditions: Homo sapiens, HD-MB03; HDMBO3 G3MB cell growth; read-out: IC50 (nM) HDMBO3
Procedure: CellTiter-Glo assay was performed as per the manufacturer’s instructions, at the noted timepoint after compound treatment or plating. For Kelly, TE617T, RhJT, NCIH2122, NCIH650 and 143B, 500 cells were plated in normal growth media per well in a 384-well plate (Corning). HDMB03 and MB002 cells were plated in growth media at 500 cells/well in a 384-well plate. […] Cells were incubated for the noted timepoints prior to performing CellTiter-Glo assay as per the manufacturer’s instructions, and reading plates on an Envision 2104 microplate reader.

BRD4-BD1 (BRD4-1) = molecular target: T1, BRD4-BD1 (BRD4-1) (Homo sapiens, UniProt O60885); assay: Differential scanning fluorimetry (DSF) thermal shift; format: binding; conditions: DSF; for ∆Tm (°C) BRD4-1: 5 μM protein, 100 μM compound, three independent experiments, average ± SD; for ΔTm (°C) BRD4-BD1: Figure 3A
T1 construct: BRD4-BD1 (residues 44-168); 6xHis (cleaved yes); host or cells: E. coli BL21 (DE3) RIL
Procedure: (§1) At OD600 of 0.6, the culture was cooled down to 18 °C and induced with 0.1 mM IPTG. After 18 h growth, the culture was harvested by centrifugation at 6000 × g for 25 min and stored at -80 °C. Harvested cell pellets were re-suspended in 50 mM Na/K phosphate buffer (pH 7.4) containing 100 mM NaCl, 40 mM imidazole, 0.01% w/v lysozyme and 0.01% v/v Triton X-100 at 4 °C for 1 h, subjected to sonication and the lysate was clarified by centrifugation (30,000 × g for 45 min at 4 °C). Proteins were purified by FPLC at 4 °C using columns and chromatography materials from GE Healthcare. […] Proteins were purified to homogeneity by size exclusion chromatography using Superdex 75 equilibrated with elution buffer (50 mM HEPES pH 7.5, 100 mM NaCl, 2 mM DTT). All BRDs eluted as monomeric protein and were of crystallization grade quality (>95% purity as judged by SDS-PAGE). Pool fractions were combined, concentrated to 10–12 mg/ml, and aliquots were flash-frozen in liquid N2 and stored at −80 °C.
(§2) DSF experiments were performed with an Applied Biosystem StepOnePlus real-time PCR system (Thermo Fisher Scientific) using 96-well format plates, assayed in quadruplicate. For thermal shift determination, 5 μM protein was mixed with 100 μM compound in 50 mM HEPES, pH 7.5, 150 mM NaCl, 2 mM DTT, 2% DMSO, 5X SYPRO Orange (Thermo Fisher Scientific) in 20 μL reaction volumes. Reaction mixtures were heated from 25 to 95 °C at 1 °C/min with fluorescence readings every 0.5 °C at 610 nm. The observed thermal shift (ΔTm) was recorded as the difference between the Tm of sample and DMSO reference wells.

EP300 bromodomain = molecular target: T2, EP300 bromodomain (Homo sapiens, UniProt Q09472); assay: as above; format: binding; conditions: DSF; for ∆Tm (°C) EP300: 5 μM protein, 100 μM compound, three independent experiments, average ± SD; for ΔTm (°C) EP300: Figure 3B
T2 construct: 6xHis (cleaved yes); host or cells: E. coli BL21 (DE3) RIL
T2 sequence (Q09472 1048-1161): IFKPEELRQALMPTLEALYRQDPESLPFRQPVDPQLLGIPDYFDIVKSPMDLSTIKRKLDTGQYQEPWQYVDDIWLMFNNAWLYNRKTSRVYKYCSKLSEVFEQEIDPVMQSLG
Procedure: as §1, §2

CBP bromodomain [2] = molecular target: T3, CBP bromodomain (Homo sapiens, UniProt Q92793); assay: as above; format: binding; conditions: for ∆Tm (°C) CBP / ΔTm (°C) CBP: DSF; for ∆Tm (°C) CBP: 5 μM protein, 100 μM compound, three independent experiments, average ± SD; for DSF ΔTm (°C): Figure 3C, DSF (values equal CBP column)
T3 construct: CBP (residues 1081-1197); 6xHis (cleaved yes); host or cells: E. coli BL21 (DE3) RIL
T3 sequence (Q92793 1081-1197): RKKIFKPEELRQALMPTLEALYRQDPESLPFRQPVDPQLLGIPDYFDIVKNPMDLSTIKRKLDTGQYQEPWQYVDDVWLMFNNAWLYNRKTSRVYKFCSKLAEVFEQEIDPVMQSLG
Procedure: as §1, with “After” for “At OD600 of 0.6, the culture was cooled down to 18 °C and induced with 0.1 mM IPTG. After”, “All BRDs eluted as monomeric protein and were of crystallization grade quality (>95% purity as judged by SDS-PAGE).” left out
(§3) DSF experiments were performed with an Applied Biosystem StepOnePlus real-time PCR system (Thermo Fisher Scientific) using 96-well format plates, assayed in quadruplicate. For thermal shift determination, 5 μM protein was mixed with 100 μM compound in 50 mM HEPES, pH 7.5, 150 mM NaCl, 2 mM DTT, 2% DMSO, 5X SYPRO Orange (Thermo Fisher Scientific) in 20 μL reaction volumes.

CBP bromodomain [3] = assay: as above; format: binding; conditions: ΔTm (CBP)/ΔTm(BRD4)
Procedure: as §1, with “After” for “At OD600 of 0.6, the culture was cooled down to 18 °C and induced with 0.1 mM IPTG. After”, “All BRDs eluted as monomeric protein and were of crystallization grade quality (>95% purity as judged by SDS-PAGE).” left out
as §3

[4] = molecular target: GFP-tagged CBP bromodomain (Homo sapiens, UniProt Q92793); assay: Microscale thermophoresis (MST); format: binding; conditions: for Response (Dose Response Curve): MST raw response
Chain of GFP-tagged CBP bromodomain (Q92793 1085-1192 limits assumed): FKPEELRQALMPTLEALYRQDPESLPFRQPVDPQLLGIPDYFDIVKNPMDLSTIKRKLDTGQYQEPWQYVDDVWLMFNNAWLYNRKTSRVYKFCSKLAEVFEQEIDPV
Procedure: MST experiments were performed in a Monolith NT.115 Pico instrument (NanoTemper Technologies) following published procedures. […] MST traces were recorded using standard parameters: 5 s MST power off, 30 s MST power on and 5 s MST power off. Measurements were taken at -1-0 s (cold region) and 10 s (hot region) and data were analyzed using the NTAnalysis software.

[5] = three independent MST experiments, average ± SD, read-out: Kd (nM) CBP

SMILES | IC50 [1] [nM] | ∆Tm (°C) BRD4-1 (BRD4-BD1 (BRD4-1)) [°C] | ΔTm (°C) BRD4-BD1 (BRD4-BD1 (BRD4-1)) [°C] | ∆Tm (°C) EP300 (EP300 bromodomain) [°C] | ΔTm (°C) EP300 (EP300 bromodomain) [°C] | ∆Tm (°C) CBP (CBP bromodomain [2]) [°C] | ΔTm (°C) CBP (CBP bromodomain [2]; Figure 3A, CBP bromodomain) [°C] | ΔTm (°C) CBP (CBP bromodomain [2]; Figure 3B, CBP) [°C] | DSF ΔTm (°C) (CBP bromodomain [2]) | Ratio CBP/BRD4 of ∆Tm (CBP bromodomain [3]) | Kd [4, 5] | also measured
COC1CCC(n2c(C3CCCC(=O)N3c3ccccc3)nc3cc(-c4c(C)noc4C)ccc32)CC1 (stereo not shown) [Compound 5] | 108 ± 25 | 5.5 ± 0.17 | 5.5 | 14.8 ± 0.45 | 14.8 | 14.6 ± 0.16 | 14.6 | 14.6 | 14.6 | 2.7 | 31.4 ± 14.2 nM | Response (Dose Response Curve) ([4]; Dose 1.52588e-10, single replicate run, listed as iCBP-5): 914.717 and 915.838; Response (Dose Response Curve) ([4]; Dose 3.05176e-10, single replicate run, listed as iCBP-5): 915.243 and 914.96; Response (Dose Response Curve) ([4]; Dose 6.10352e-10, single replicate run, listed as iCBP-5): 914.396 and 915.476; Response (Dose Response Curve) ([4]; Dose 1.2207e-9, single replicate run, listed as iCBP-5): 915.983 and 915.524; Response (Dose Response Curve) ([4]; Dose 2.44141e-9, single replicate run, listed as iCBP-5): 915.86 and 916.029; Response (Dose Response Curve) ([4]; Dose 4.88281e-9, single replicate run, listed as iCBP-5): 914.611 and 915.107; Response (Dose Response Curve) ([4]; Dose 9.76563e-9, single replicate run, listed as iCBP-5): 914.911 and 914.67; Response (Dose Response Curve) ([4]; Dose 1.95313e-8, single replicate run, listed as iCBP-5): 915.602 and 914.588; Response (Dose Response Curve) ([4]; Dose 3.90625e-8, single replicate run, listed as iCBP-5): 913.799 and 914.854; Response (Dose Response Curve) ([4]; Dose 7.8125e-8, single replicate run, listed as iCBP-5): 913.08 and 913.563; Response (Dose Response Curve) ([4]; Dose 1.5625e-7, single replicate run, listed as iCBP-5): 911.965 and 911.667; Response (Dose Response Curve) ([4]; Dose 3.125e-7, single replicate run, listed as iCBP-5): 909.591 and 910.599; Response (Dose Response Curve) ([4]; Dose 6.25e-7, single replicate run, listed as iCBP-5): 911.215 and 910.906; Response (Dose Response Curve) ([4]; Dose 1.25e-6, single replicate run, listed as iCBP-5): 911.169 and 911.287; Response (Dose Response Curve) ([4]; Dose 2.5e-6, single replicate run, listed as iCBP-5): 914.21 and 911.877; Response (Dose Response Curve) ([4]; Dose 5e-6, single replicate run, listed as iCBP-5): 912.484 and 912.12; Kd ([4]; MST, single replicate run, target clGFP-CBPBRD, TargetConcentration 5e-8, MST-Power Medium, unit inferred, read-out: Kd (Fit Results, Fit Model: Kd)): 16.1 nM and 33.7 nM; Bound (Fit Results) ([4]; fitted MST response of bound state, single replicate run, target clGFP-CBPBRD 5e-8, listed as iCBP-5): 911.766 and 911.236; Unbound (Fit Results) ([4]; fitted MST response of unbound state, single replicate run, target clGFP-CBPBRD 5e-8, listed as iCBP-5): 915.376 and 915.584; loss of binding affinity (CBP) ([4]; relative to CCS1477): ~ 10 fold
COC1CCC(n2c(C3CCCC(=O)N3c3cccc(C(C)(C)C)c3)nc3cc(-c4c(C)noc4C)ccc32)CC1 (stereo not shown) [Compound 6] | 558 ± 335 | 3.2 ± 0.13 |  | 14.3 ± 0.19 |  | 15.3 ± 0.2 |  |  |  | 4.8 | 30 ± 21.6 nM | 
COC1CCC(n2c(C3CCCC(=O)N3c3ccc4c(c3)OCCO4)nc3cc(-c4c(C)noc4C)ccc32)CC1 (stereo not shown) [Compound 7] | 452 ± 217 | 6.9 ± 0.23 | 6.9 | 13.5 ± 0.89 | 13.5 | 15.5 ± 0.14 | 15.5 | 15.5 | 15.5 | 2.2 | 17 nM and 16.9 nM | Kd ([4]; MO.Affinity Analysis export, single runs, target clGFP-CBPBRD 5e-8, unit inferred, read-out: Kd (fit result of individual MST run)): 15.5 nM and 27.7 nM and 7.4 nM
